Assay results from patent US20110053773A1, “METHODS OF IMPROVING NUTRITIONAL VALUE OF PLANTS” (UNIVERSITY OF TENNESSEE RESEARCH FOUNDATION, priority 2009, published 2011).

Legend:
[1] = test system: kale 'Red Russian'; assay: Visual injury of kale after insecticide, fungicide, PGRs, safeners (Example 4)
Outline: (§1)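 Plants were harvested about 4 weeks post-treatment and pooled across replicates to analyse protein, amino acids, fiber, fatty acids and minerals (Na, Ca, P, Mg, K, Fe, Mn, Zn, Cu). Treatments were postemergence insecticide, fungicide, PGRs and safeners. Visual injury scored 0–100% (phytotoxicity, chlorosis, stunting).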

[2] = test system: basil ‘Genovese’; assay: Yield, fresh weight of basil after insecticide, fungicide, PGRs and safeners (Example 4, Table 10); format: in vivo; settings: DA-A, check 31.8
Outline: (§2)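 Postemergence greenhouse applications of chlorpyrifos, chlorothalonil, mepiquat-chloride, paclobutrazol, napthalic anhydride or isoxadifen-ethyl. Injury rated visually for phytotoxicity, chlorosis and stunting on a 0–100% scale (0 = no response, 100 = plant death). Plants harvested ~4 weeks after treatment, pooled over replicates for nutrient content analysis.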

[3] = test system: basil 'Genovese'; assay: Content analysis of basil: protein, minerals (Example 4, Tables 10-11); format: in vivo; settings: 28 DA-A
Outline: as §2

[4] = test system: kale ‘Red Russian’; assay: Yield, fresh weight of kale after insecticide, fungicide and PGRs (Example 4, Table 12); format: in vivo; settings: 28 DA-A, Untreated Check 106.9
Outline: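 Greenhouse postemergence applications of chlorpyrifos, chlorothalonil, mepiquat-chloride, paclobutrazol, napthalic anhydride or isoxadifen-ethyl. Visual injury (phytotoxicity, chlorosis, stunting) scored 0–100%, 0 = no response, 100 = plant death. Harvest about 4 weeks after treatment; replicates pooled for protein, mineral, amino acid, fiber and fatty acid analysis.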

[5] = test system: kale 'Red Russian'; assay: Content analysis of kale: protein, amino acids, fiber, fatty acids, minerals (Example 4, Tables 12-14); format: in vivo; settings: 28 DA-A, first-listed rate g ai/ha: chlropyrifos ###, chlorothalonil ###, paclobutrazol 3.2, mepiquat-chloride 12, + NIS 0.3 % v/v
Outline: as §1

[6] = 7 DA-A, rates g ai/ha: chlropyrifos 1120, chlorothalonil 2630, paclobutrazol 3.23, mepiquat-chloride 12.3, + NIS 0.25 % v/v
[7] = 7 DA-A, rates g ai/ha: chlropyrifos 3370, chlorothalonil 7900, paclobutrazol 9.7, mepiquat-chloride 37, + NIS 0.25 % v/v
[8] = 14 DA-A, rates g ai/ha: chlropyrifos 1120, chlorothalonil 2630, paclobutrazol 3.23, mepiquat-chloride 12.3, + NIS 0.25 % v/v
[9] = 14 DA-A, rates g ai/ha: chlropyrifos 3370, chlorothalonil 7900, paclobutrazol 9.7, mepiquat-chloride 37, + NIS 0.25 % v/v
[10] = 28 DA-A, rates g ai/ha: chlropyrifos 1120, chlorothalonil 2630, paclobutrazol 3.23, mepiquat-chloride 12.3, + NIS 0.25 % v/v
[11] = 28 DA-A, rates g ai/ha: chlropyrifos 3370, chlorothalonil 7900, paclobutrazol 9.7, mepiquat-chloride 37, + NIS 0.25 % v/v
[12] = rates g ai/ha: chlropyrifos 1120, chlorothalonil 2630, paclobutrazol 3.23, mepiquat-chloride 12.3, Isoxadifen 8, Napthalic anhydride 264, + NIS 0.25 % v/v
[13] = rates g ai/ha: chlroprifos 3370, chlorothalonil 7900, paclobutrazol 9.7, mepiquat-chloride 37, Isoxadifen 16, Napthalic anhydride 527, + NIS 0.25 % v/v

For `N#Cc1c(Cl)c(Cl)c(Cl)c(C#N)c1Cl` [chlorothalonil], the “Phytotoxicity Chlorosis” value [1, 6] was 0%, the “Phytotoxicity General” value [1, 6] was 15% and the “Phytotoxicity Stunting” value [1, 6] was 0%. The “Phytotoxicity Chlorosis” value [1, 7] was 0%, the “Phytotoxicity General” value [1, 7] was 9% and the “Phytotoxicity Stunting” value [1, 7] was 1%. The “Phytotoxicity Chlorosis” value [1, 8] was 10%, the “Phytotoxicity General” value [1, 8] was 0% and the “Phytotoxicity Stunting” value [1, 8] was 5%. The “Phytotoxicity Chlorosis” value [1, 9] was 6%, the “Phytotoxicity General” value [1, 9] was 1% and the “Phytotoxicity Stunting” value [1, 9] was 5%. For the same molecule, the “Phytotoxicity Chlorosis” value [1, 10] was 3%, the “Phytotoxicity General” value [1, 10] was 5% and the “Phytotoxicity Stunting” value [1, 10] was 6%. The “Phytotoxicity Chlorosis” value [1, 11] was 0%, the “Phytotoxicity General” value [1, 11] was 3% and the “Phytotoxicity Stunting” value [1, 11] was 8%. For the same molecule, the “Yield Fresh weight” value [2, 12] was 27.5 grams, the “Yield Fresh weight” value ([2]; rates g ai/ha: chlropyrifos 3370, chlorothalonil 7900, paclobutrazol 9.7, mepiquat-chloride 37, Isoxadifen 16, Napthalic anhydride 527, + NIS 0.25 % v/v) was 25.9 grams and the “ADF, Percent Increase Over the Untreated Check (on a % dry matter basis)” value [3, 13] was 1 % check. The “Calcium, Percent Increase Over the Untreated Check (on a % dry matter basis)” value [3, 13] was −15 % check, the “Copper, Percent Increase Over the Untreated Check (on a % dry matter basis)” value [3, 13] was −17 % check and the “Iron, Percent Increase Over the Untreated Check (on a % dry matter basis)” value [3, 13] was 25 % check. The “Magnesium, Percent Increase Over the Untreated Check (on a % dry matter basis)” value [3, 13] was −6 % check, the “Manganese, Percent Increase Over the Untreated Check (on a % dry matter basis)” value [3, 13] was −8 % check and the “NDF, Percent Increase Over the Untreated Check (on a % dry matter basis)” value [3, 13] was 12 % check. For the same molecule, the “Phosphorous, Percent Increase Over the Untreated Check (on a % dry matter basis)” value [3, 13] was 0 % check, the “Potassium, Percent Increase Over the Untreated Check (on a % dry matter basis)” value [3, 13] was 7 % check and the “Protein, Percent Increase Over the Untreated Check (on a % dry matter basis)” value [3, 13] was 3 % check. For the same molecule, the “Sodium, Percent Increase Over the Untreated Check (on a % dry matter basis)” value [3, 13] was 50 % check, the “Soluble protein, Percent Increase Over the Untreated Check (on a % dry matter basis)” value [3, 13] was 42 % check and the “Zinc, Percent Increase Over the Untreated Check (on a % dry matter basis)” value [3, 13] was −6 % check. The “ADF, Percent Increase Over the Untreated Check (on a % dry matter basis)” value [3, 12] was 1 % check, the “Calcium, Percent Increase Over the Untreated Check (on a % dry matter basis)” value [3, 12] was 0 % check and the “Copper, Percent Increase Over the Untreated Check (on a % dry matter basis)” value [3, 12] was −17 % check. For the same molecule, the “Iron, Percent Increase Over the Untreated Check (on a % dry matter basis)” value [3, 12] was 37 % check, the “Magnesium, Percent Increase Over the Untreated Check (on a % dry matter basis)” value [3, 12] was 3 % check and the “Manganese, Percent Increase Over the Untreated Check (on a % dry matter basis)” value [3, 12] was 43 % check. For the same molecule, the “NDF, Percent Increase Over the Untreated Check (on a % dry matter basis)” value [3, 12] was 6 % check, the “Phosphorous, Percent Increase Over the Untreated Check (on a % dry matter basis)” value [3, 12] was 9 % check and the “Potassium, Percent Increase Over the Untreated Check (on a % dry matter basis)” value [3, 12] was 4 % check. The “Protein, Percent Increase Over the Untreated Check (on a % dry matter basis)” value [3, 12] was 3 % check, the “Sodium, Percent Increase Over the Untreated Check (on a % dry matter basis)” value [3, 12] was 8 % check and the “Soluble protein, Percent Increase Over the Untreated Check (on a % dry matter basis)” value [3, 12] was 223 % check. For the same molecule, the “Zinc, Percent Increase Over the Untreated Check (on a % dry matter basis)” value [3, 12] was 38 % check, the “Yield Fresh weight” value ([4]; rates g ai/ha: chlropyrifos 1120, chlorothalonil 2630, paclobutrazol 3.23, mepiquat-chloride 12.3, + NIS 0.25 % v/v) was 102.5 grams and the “Yield Fresh weight” value ([4]; rates g ai/ha: chlropyrifos 3370, chlorothalonil 7900, paclobutrazol 9.7, mepiquat-chloride 37, + NIS 0.25 % v/v) was 107.5 grams. For the same molecule, the “Alanine, Percent Increase over the Untreated Check (on a % dry matter basis)” value [5] was 3 % check, the “Aspartic acid, Percent Increase over the Untreated Check (on a % dry matter basis)” value [5] was 2 % check and the “Cysteine, Percent Increase over the Untreated Check (on a % dry matter basis)” value [5] was −6 % check. The “Glutamic acid, Percent Increase over the Untreated Check (on a % dry matter basis)” value [5] was 5 % check, the “Glycine, Percent Increase over the Untreated Check (on a % dry matter basis)” value [5] was 0 % check and the “Iso-leucine, Percent Increase over the Untreated Check (on a % dry matter basis)” value [5] was 4 % check. The “Leucine, Percent Increase over the Untreated Check (on a % dry matter basis)” value [5] was 4 % check, the “Lysine, Percent Increase over the Untreated Check (on a % dry matter basis)” value [5] was 5 % check and the “Methionine, Percent Increase over the Untreated Check (on a % dry matter basis)” value [5] was 2 % check. The “Proline, Percent Increase over the Untreated Check (on a % dry matter basis)” value [5] was 6 % check.
